Test results: ChEMBL document CHEMBL1201862, “PubChem BioAssay data set” (2004)
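Briefly, cells in 96-well plates were exposed to five compound concentrations for 48 h, and endpoints were estimated by linear interpolation. GI50 marks 50% less growth.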 The source made the active and inactive calls. Rule as the data show it: active = GI50 up to about 1.1 µM and inactive = higher.

How the values were obtained:
Test in all cases: NCI tumour cell line growth inhibition, 48 h
786-0 = test system: 786-0
CAKI-1 = test system: CAKI-1
DU-145 = test system: DU-145
EKVX = test system: EKVX
HCC 2998 = test system: HCC 2998
HOP-62 = test system: HOP-62
Hs-578T = test system: Hs-578T
IGROV-1 = test system: IGROV-1
K562 = test system: K562
MCF7 = test system: MCF7
MDA-N = test system: MDA-N
MOLT-4 = test system: MOLT-4
NCI-H226 = test system: NCI-H226
NCI-H23 = test system: NCI-H23
RPMI-8226 = test system: RPMI-8226
RXF 393 = test system: RXF 393
SF-295 = test system: SF-295
SK-MEL-2 = test system: SK-MEL-2
SN12C = test system: SN12C
UO-31 = test system: UO-31

Structure (SMILES)	GI50 (786-0)	GI50 (CAKI-1)	GI50 (DU-145)	GI50 (EKVX)	GI50 (HCC 2998)	GI50 (HOP-62)	GI50 (Hs-578T)	GI50 (IGROV-1)	GI50 (K562)	GI50 (MCF7)	GI50 (MDA-N)	GI50 (MOLT-4)	GI50 (NCI-H226)	GI50 (NCI-H23)	GI50 (RPMI-8226)	GI50 (RXF 393)	GI50 (SF-295)	GI50 (SK-MEL-2)	GI50 (SN12C)	GI50 (UO-31)
Cc1ccc(C2SC(=N)Nc3c2c(C)nn3C(=O)c2ccc(Cl)cc2)cc1 (stereo not given)	> 10 µM (inactive)	> 10 µM (inactive)	> 10 µM (inactive)	> 10 µM (inactive)	> 10 µM (inactive)	> 10 µM (inactive)	> 10 µM (inactive)	> 10 µM (inactive)	> 10 µM (inactive)	> 10 µM (inactive)	> 10 µM (inactive)	> 10 µM (inactive)	> 10 µM (inactive)	> 10 µM (inactive)	> 10 µM (inactive)	> 10 µM (inactive)	> 10 µM (inactive)	> 10 µM (inactive)	> 10 µM (inactive)	
COc1cc(/C=C/C(C)=O)ccc1OP(=O)(O)O	> 100 µM (inactive)	> 100 µM (inactive)	> 100 µM (inactive)	> 100 µM (inactive)	> 100 µM (inactive)	> 100 µM (inactive)	> 100 µM (inactive)	> 100 µM (inactive)		> 100 µM (inactive)	> 100 µM (inactive)	> 100 µM (inactive)	> 100 µM (inactive)	> 100 µM (inactive)	> 100 µM (inactive)	> 100 µM (inactive)	> 100 µM (inactive)	> 100 µM (inactive)	> 100 µM (inactive)	> 100 µM (inactive)
O=C1Nc2ccc(Br)cc2/C1=N/N1C(=O)C(=O)N(C2CCCCC2)C1=S	5.46 µM (inactive)	3.1 µM (inactive)	9.42 µM (inactive)	4.98 µM (inactive)	3.64 µM (inactive)	2.92 µM (inactive)	8.38 µM (inactive)		3.69 µM (inactive)	4.17 µM (inactive)	2.02 µM (inactive)	2.26 µM (inactive)	7.03 µM (inactive)	7.11 µM (inactive)	4.25 µM (inactive)	10 µM (inactive)	3.16 µM (inactive)	1.41 µM (inactive)	3.43 µM (inactive)	1.51 µM (inactive)
O=C1CSC(=S)N1c1ccc(F)cc1F	> 100 µM (inactive)	45.3 µM (inactive)	> 100 µM (inactive)	94.8 µM (inactive)	34.8 µM (inactive)	> 100 µM (inactive)	41.3 µM (inactive)	51.6 µM (inactive)		21.7 µM (inactive)	36.3 µM (inactive)		> 100 µM (inactive)	46.5 µM (inactive)	24.4 µM (inactive)	72.9 µM (inactive)	44.8 µM (inactive)	61.2 µM (inactive)	> 100 µM (inactive)	89.9 µM (inactive)
CC12Cc3cc4c(cc3C1(c1ccc([N+](=O)[O-])cc1)OCCO2)OCO4 (stereo not given)	47.9 µM (inactive)	> 100 µM (inactive)	87.1 µM (inactive)	37.2 µM (inactive)	> 100 µM (inactive)	18.1 µM (inactive)	25.5 µM (inactive)	23.1 µM (inactive)	> 100 µM (inactive)	76.7 µM (inactive)	> 100 µM (inactive)	> 100 µM (inactive)	26.2 µM (inactive)	42.9 µM (inactive)	> 100 µM (inactive)	16.4 µM (inactive)	25.2 µM (inactive)	32.2 µM (inactive)	55.6 µM (inactive)	> 100 µM (inactive)
COc1c(/C=C/C(C)(C)O)cc(C2CC(=O)c3c(O)cc(O)cc3O2)cc1CC=C(C)C (stereo not given)	9.57 µM (inactive)	16 µM (inactive)	9.06 µM (inactive)		2.36 µM (inactive)		10.7 µM (inactive)		10.7 µM (inactive)	8.51 µM (inactive)	9.53 µM (inactive)	11.7 µM (inactive)	9.71 µM (inactive)	9.02 µM (inactive)	10.8 µM (inactive)	7.91 µM (inactive)	7.26 µM (inactive)	8.61 µM (inactive)	6.27 µM (inactive)	0.762 µM (active)
CC1=C(C#N)C2C(=C(C)N1)C(N)=Nc1ccccc12 (stereo not given)	43 µM (inactive)	49.8 µM (inactive)	88.7 µM (inactive)	19.1 µM (inactive)	35.2 µM (inactive)	67.3 µM (inactive)	23 µM (inactive)	29.9 µM (inactive)		80.5 µM (inactive)	43.2 µM (inactive)	33.2 µM (inactive)	30 µM (inactive)	55.2 µM (inactive)		38 µM (inactive)	30.6 µM (inactive)	81.8 µM (inactive)	38.5 µM (inactive)	
CC(C)(NC1=NCCO1)c1ccccc1	> 100 µM (inactive)	> 100 µM (inactive)	> 100 µM (inactive)	> 100 µM (inactive)	> 100 µM (inactive)	> 100 µM (inactive)	> 100 µM (inactive)	> 100 µM (inactive)		> 100 µM (inactive)	> 100 µM (inactive)	> 100 µM (inactive)	> 100 µM (inactive)	> 100 µM (inactive)	> 100 µM (inactive)	> 100 µM (inactive)	> 100 µM (inactive)	> 100 µM (inactive)	> 100 µM (inactive)	> 100 µM (inactive)
O=C1c2ccccc2C(C2c3ccccc3C(=O)c3cc(Br)ccc32)c2ccc(Br)cc21 (stereo not given)	> 100 µM (inactive)	> 100 µM (inactive)	> 100 µM (inactive)	> 100 µM (inactive)	> 100 µM (inactive)	> 100 µM (inactive)	> 100 µM (inactive)	> 100 µM (inactive)	31.8 µM (inactive)	> 100 µM (inactive)	> 100 µM (inactive)	61 µM (inactive)	> 100 µM (inactive)	> 100 µM (inactive)	> 100 µM (inactive)	> 100 µM (inactive)	> 100 µM (inactive)		> 100 µM (inactive)	> 100 µM (inactive)
Cc1cc2nn(C3CCCO3)nc2cc1C (stereo not given)	> 100 µM (inactive)	> 100 µM (inactive)	> 100 µM (inactive)	> 100 µM (inactive)	> 100 µM (inactive)	> 100 µM (inactive)	> 100 µM (inactive)	> 100 µM (inactive)	> 100 µM (inactive)	> 100 µM (inactive)	> 100 µM (inactive)	> 100 µM (inactive)	> 100 µM (inactive)	> 100 µM (inactive)		> 100 µM (inactive)	> 100 µM (inactive)	> 100 µM (inactive)	> 100 µM (inactive)	
O=C(N/N=C1\CCc2ccccc21)N/N=C1\CCc2ccccc21	> 100 µM (inactive)	> 100 µM (inactive)	> 100 µM (inactive)		> 100 µM (inactive)	> 100 µM (inactive)	> 100 µM (inactive)	> 100 µM (inactive)	> 100 µM (inactive)	> 100 µM (inactive)	11.2 µM (inactive)	> 100 µM (inactive)	> 100 µM (inactive)	> 100 µM (inactive)	> 100 µM (inactive)	> 100 µM (inactive)	> 100 µM (inactive)	> 100 µM (inactive)	> 100 µM (inactive)	> 100 µM (inactive)
CC1=NN(c2cccc(Cl)c2)C2(C1=Cc1cccs1)C(Cl)C(=O)N2c1nc2ccccc2s1 (stereo not given)	13.8 µM (inactive)	23.5 µM (inactive)	33.8 µM (inactive)	19.5 µM (inactive)	17 µM (inactive)	27.6 µM (inactive)	27.4 µM (inactive)	28.6 µM (inactive)	25.7 µM (inactive)	23.2 µM (inactive)	22.1 µM (inactive)	22.3 µM (inactive)	24.3 µM (inactive)	21.3 µM (inactive)	17.9 µM (inactive)	21.1 µM (inactive)	19.6 µM (inactive)	17.9 µM (inactive)		23.9 µM (inactive)
CC[C@@]1(O)C(=O)OCc2c1cc1n(c2=O)Cc2c-1nc1ccccc1c2/C=N/NC(=O)c1ccc(N)cc1	0.0422 µM (active)	0.0589 µM (active)	0.0383 µM (active)		1.12 µM (inactive)	0.0333 µM (active)	> 100 µM (inactive)	0.279 µM (active)	0.075 µM (active)	< 0.016 µM (active)	0.434 µM (active)	0.0111 µM (active)	0.04 µM (active)	0.0798 µM (active)	1.52 µM (inactive)	< 0.0322 µM (active)	0.123 µM (active)	5.37 µM (inactive)	0.0543 µM (active)	0.258 µM (active)
CN(C)c1n/c(=N/Cc2ccncc2)ss1	17.4 µM (inactive)	31.5 µM (inactive)	> 10 µM (inactive)	> 71.9 µM (inactive)	> 52.6 µM (inactive)	> 10 µM (inactive)	23.6 µM (inactive)	> 75.5 µM (inactive)	17 µM (inactive)	61 µM (inactive)	21.7 µM (inactive)	20.3 µM (inactive)	> 100 µM (inactive)	17.5 µM (inactive)	21 µM (inactive)	31.8 µM (inactive)	> 90.8 µM (inactive)		19.6 µM (inactive)	> 50 µM (inactive)
COC(=O)[C@@]12CN(C)[C@@H](C(C)(C)C)N1C(=O)OC2c1ccccc1 (stereo not given in full)	> 100 µM (inactive)	> 100 µM (inactive)	> 100 µM (inactive)	> 100 µM (inactive)	> 100 µM (inactive)	> 100 µM (inactive)	> 100 µM (inactive)	> 100 µM (inactive)	> 100 µM (inactive)	> 100 µM (inactive)	> 100 µM (inactive)	> 100 µM (inactive)	> 100 µM (inactive)	> 100 µM (inactive)	> 100 µM (inactive)	> 100 µM (inactive)	> 100 µM (inactive)		> 100 µM (inactive)	> 100 µM (inactive)
